Earlier results as cited in patent publication US8906890B2, “Very low-dosed solid oral dosage forms for HRT” (Bayer Intellectual Property GmbH, priority 2010, dated 2014).

Settings: 2 mg E2 orally

In the case of `C[C@]12CC[C@@H]3c4ccc(O)cc4CC[C@H]3[C@@H]1CC[C@@H]2O` [E2, estradiol], the estrogen-related adverse events is given as “increased estrogen-related adverse events”.
